What was measured:
irritable bowel syndrome [1] = test: Clinical Study 3, immediate release darifenacin three times daily vs placebo in irritable bowel syndrome; format: in vivo, human; conditions: for Constipation % of patients reporting AEs corrected for placebo / Dry Mouth % of patients reporting AEs corrected for placebo / Global Rating % Reduction from baseline corrected for placebo / Loose Stool % Reduction from baseline corrected for placebo / Pain Score % Reduction from baseline corrected for placebo / Total AE % of patients reporting AEs corrected for placebo / Urgency % Reduction from baseline corrected for placebo / Vision % of patients reporting AEs corrected for placebo / Constipation % of patients reporting AEs / Dry Mouth % of patients reporting AEs / Global Rating % Reduction from baseline / Loose Stool % Reduction from baseline / Pain Score % Reduction from baseline / Total AE % of patients reporting AEs / Urgency % Reduction from baseline / Vision % of patients reporting AEs: Clinical Study 3, 12 weeks; for Constipation % of patients reporting AEs / Dry Mouth % of patients reporting AEs / Global Rating % Reduction from baseline / Loose Stool % Reduction from baseline / Pain Score % Reduction from baseline / Total AE % of patients reporting AEs / Urgency % Reduction from baseline / Vision % of patients reporting AEs: uncorrected
Source text: (§1) The invention may be illustrated by the following clinical studies wherein the treatment of irritable bowel syndrome using darifenacin administered as a once-daily controlled (slow) release formulation in accordance with the prior art is compared with treatment using darifenacin administered as a thrice daily immediate release formulation in accordance with the present invention. Specifically, Clinical Studies 1 and 2 used controlled (slow) release formulations of darifenacin administered once daily (od) and Clinical Study 3 used an immediate release formulation of darifenacin administered three times daily (tid).
(§2) During each clinical study, four efficacy measures of irritable bowel syndrome severity were measured, viz. ‘Pain Score’ (Average daily pain score, a composite of severity and number of days of pain), ‘Loose Stool’ (Number of days on which loose or watery stool occurred), ‘Urgency’ (Number of days on which urgency occured) and so-called ‘Global Rating’ (Patient rating of their condition taking into account all symptoms, 0=no problems). Adverse events (AE) such as constipation, dry mouth and visual abnormalities were also recorded.
Clinical Study 3 was a multi-centre, double-blind, randomised, placebo-controlled parallel group study in which three dose strengths of darifenacin 1.25, 2.5 and 5 mg dosed tid were compared with placebo. Treatment lasted 12 weeks following a 2-week run-in period.
The immediate release dosage forms of darifenacin used in Clinical Study 3 were 1.25 mg, 2.5 mg and 5.0 mg capsules having the following compositions in a Size 3 capsule shell: […]

irritable bowel syndrome [2] = test: Clinical Study 1, controlled (slow) release darifenacin once daily vs placebo in irritable bowel syndrome; format: in vivo, human; conditions: for Constipation % of patients reporting AEs corrected for placebo / Dry Mouth % of patients reporting AEs corrected for placebo / Global Rating % Reduction from baseline corrected for placebo / Loose Stool % Reduction from baseline corrected for placebo / Pain Score % Reduction from baseline corrected for placebo / Total AE % of patients reporting AEs corrected for placebo / Urgency % Reduction from baseline corrected for placebo / Vision % of patients reporting AEs corrected for placebo / Constipation % of patients reporting AEs / Dry Mouth % of patients reporting AEs / Global Rating % Reduction from baseline / Loose Stool % Reduction from baseline / Pain Score % Reduction from baseline / Total AE % of patients reporting AEs / Urgency % Reduction from baseline / Vision % of patients reporting AEs: Clinical Study 1, 12 weeks; for Constipation % of patients reporting AEs / Dry Mouth % of patients reporting AEs / Global Rating % Reduction from baseline / Loose Stool % Reduction from baseline / Pain Score % Reduction from baseline / Total AE % of patients reporting AEs / Urgency % Reduction from baseline / Vision % of patients reporting AEs: uncorrected
Source text: as §1, §2
Clinical Study 1 was a multi-centre, double-blind, randomised, placebo-controlled parallel group study in which three dose strengths of darifenacin of 3.75 mg, 7.5 mg and 15 mg dosed od were compared with placebo. Treatment lasted 12 weeks following a 2-week run-in period.
The controlled (slow) release dosage forms of darifenacin used in Clinical Studies 1 and 2 were 3.75 mg, 7.5 mg, 15.0 mg and 30.0 mg tablets having the following compositions: […]

[3] = immediate release capsule 3 × 1.25 mg (tid)
[4] = immediate release capsule 3 × 2.5 mg (tid)
[5] = immediate release capsule 3 × 5.0 mg (tid)
[6] = controlled release tablet 3.75 mg od
[7] = controlled release tablet 7.5 mg od
[8] = controlled release tablet 15 mg od
[9] = both controlled release od studies (Clinical Studies 1 and 2)

NC(=O)C(c1ccccc1)(c1ccccc1)[C@@H]1CCN(CCc2ccc3c(c2)CCO3)C1 [darifenacin] was tested, and the “Constipation % of patients reporting AEs corrected for placebo” value (from here on “Constipation % … for placebo”) (irritable bowel syndrome [1]; [3]) was 3.4%, the “Dry Mouth % of patients reporting AEs corrected for placebo” value (“Dry Mouth % … for placebo” below) (irritable bowel syndrome [1]; [3]) was 0.3% and the “Global Rating % Reduction from baseline corrected for placebo” value (“Global Rating % Reduction … for placebo” below) (irritable bowel syndrome [1]; [3]) was 9%. The “Loose Stool % Reduction from baseline corrected for placebo” value (from here on “Loose Stool % Reduction … for placebo”) (irritable bowel syndrome [1]; [3]) was 8%, the “Pain Score % Reduction from baseline corrected for placebo” value (“Pain Score % Reduction … for placebo” for short) (irritable bowel syndrome [1]; [3]) was 10% and the “Total AE % of patients reporting AEs corrected for placebo” value (“Total AE % … for placebo” below) (irritable bowel syndrome [1]; [3]) was −4%. The “Urgency % Reduction from baseline corrected for placebo” value (shortened to “Urgency % Reduction … for placebo”) (irritable bowel syndrome [1]; [3]) was 11%, the “Vision % of patients reporting AEs corrected for placebo” value (from here on “Vision % … for placebo”) (irritable bowel syndrome [1]; [3]) was −2.2% and the “Constipation % of patients reporting AEs” value (irritable bowel syndrome [1]; [3]) was 6.3%. For the same compound, the “Dry Mouth % of patients reporting AEs” value (irritable bowel syndrome [1]; [3]) was 16%, the “Global Rating % Reduction from baseline” value (irritable bowel syndrome [1]; [3]) was 27% and the “Loose Stool % Reduction from baseline” value (irritable bowel syndrome [1]; [3]) was 16%. The “Pain Score % Reduction from baseline” value (irritable bowel syndrome [1]; [3]) was 33%, the “Total AE % of patients reporting AEs” value (irritable bowel syndrome [1]; [3]) was 36% and the “Urgency % Reduction from baseline” value (irritable bowel syndrome [1]; [3]) was 36%. The “Vision % of patients reporting AEs” value (irritable bowel syndrome [1]; [3]) was 1.4%, the “Constipation % … for placebo” value (irritable bowel syndrome [1]; [4]) was 5.6% and the “Dry Mouth % … for placebo” value (irritable bowel syndrome [1]; [4]) was 8.8%. The “Global Rating % Reduction … for placebo” value (irritable bowel syndrome [1]; [4]) was 11%, the “Loose Stool % Reduction … for placebo” value (irritable bowel syndrome [1]; [4]) was 22% and the “Pain Score % Reduction … for placebo” value (irritable bowel syndrome [1]; [4]) was 17%. For the same compound, the “Total AE % … for placebo” value (irritable bowel syndrome [1]; [4]) was −3%, the “Urgency % Reduction … for placebo” value (irritable bowel syndrome [1]; [4]) was 17% and the “Vision % … for placebo” value (irritable bowel syndrome [1]; [4]) was −0.1%. For the same compound, the “Constipation % of patients reporting AEs” value (irritable bowel syndrome [1]; [4]) was 5.6%, the “Dry Mouth % of patients reporting AEs” value (irritable bowel syndrome [1]; [4]) was 24.5% and the “Global Rating % Reduction from baseline” value (irritable bowel syndrome [1]; [4]) was 29%. The “Loose Stool % Reduction from baseline” value (irritable bowel syndrome [1]; [4]) was 30%, the “Pain Score % Reduction from baseline” value (irritable bowel syndrome [1]; [4]) was 40% and the “Total AE % of patients reporting AEs” value (irritable bowel syndrome [1]; [4]) was 37%. The “Urgency % Reduction from baseline” value (irritable bowel syndrome [1]; [4]) was 42%, the “Vision % of patients reporting AEs” value (irritable bowel syndrome [1]; [4]) was 3.5% and the “Constipation % … for placebo” value (irritable bowel syndrome [1]; [5]) was 8.4%. For the same compound, the “Dry Mouth % … for placebo” value (irritable bowel syndrome [1]; [5]) was 33.9%, the “Global Rating % Reduction … for placebo” value (irritable bowel syndrome [1]; [5]) was 14% and the “Loose Stool % Reduction … for placebo” value (irritable bowel syndrome [1]; [5]) was 44%. For the same compound, the “Pain Score % Reduction … for placebo” value (irritable bowel syndrome [1]; [5]) was 13%, the “Total AE % … for placebo” value (irritable bowel syndrome [1]; [5]) was 20% and the “Urgency % Reduction … for placebo” value (irritable bowel syndrome [1]; [5]) was 32%. For the same compound, the “Vision % … for placebo” value (irritable bowel syndrome [1]; [5]) was 4.2%, the “Constipation % of patients reporting AEs” value (irritable bowel syndrome [1]; [5]) was 11.3% and the “Dry Mouth % of patients reporting AEs” value (irritable bowel syndrome [1]; [5]) was 49.6%. The “Global Rating % Reduction from baseline” value (irritable bowel syndrome [1]; [5]) was 32%, the “Loose Stool % Reduction from baseline” value (irritable bowel syndrome [1]; [5]) was 52% and the “Pain Score % Reduction from baseline” value (irritable bowel syndrome [1]; [5]) was 36%. For the same compound, the “Total AE % of patients reporting AEs” value (irritable bowel syndrome [1]; [5]) was 60%, the “Urgency % Reduction from baseline” value (irritable bowel syndrome [1]; [5]) was 57% and the “Vision % of patients reporting AEs” value (irritable bowel syndrome [1]; [5]) was 7.8%. For the same compound, the “all four efficacy measures (Pain Score, Loose Stool, Urgency and Global Rating)” value (irritable bowel syndrome [1]; immediate release tid study, all three doses) was “marked improvements”, the “Constipation % … for placebo” value (irritable bowel syndrome [2]; [6]) was 1.4% and the “Dry Mouth % … for placebo” value (irritable bowel syndrome [2]; [6]) was 2.5%. For the same compound, the “Global Rating % Reduction … for placebo” value (irritable bowel syndrome [2]; [6]) was −2%, the “Loose Stool % Reduction … for placebo” value (irritable bowel syndrome [2]; [6]) was 4% and the “Pain Score % Reduction … for placebo” value (irritable bowel syndrome [2]; [6]) was −3%. For the same compound, the “Total AE % … for placebo” value (irritable bowel syndrome [2]; [6]) was 2%, the “Urgency % Reduction … for placebo” value (irritable bowel syndrome [2]; [6]) was 18% and the “Vision % … for placebo” value (irritable bowel syndrome [2]; [6]) was 5.4%. For the same compound, the “Constipation % of patients reporting AEs” value (irritable bowel syndrome [2]; [6]) was 7.2%, the “Dry Mouth % of patients reporting AEs” value (irritable bowel syndrome [2]; [6]) was 10.2% and the “Global Rating % Reduction from baseline” value (irritable bowel syndrome [2]; [6]) was 27%. For the same compound, the “Loose Stool % Reduction from baseline” value (irritable bowel syndrome [2]; [6]) was 37%, the “Pain Score % Reduction from baseline” value (irritable bowel syndrome [2]; [6]) was 35% and the “Total AE % of patients reporting AEs” value (irritable bowel syndrome [2]; [6]) was 27%. For the same compound, the “Urgency % Reduction from baseline” value (irritable bowel syndrome [2]; [6]) was 41%, the “Vision % of patients reporting AEs” value (irritable bowel syndrome [2]; [6]) was 5.4% and the “Constipation % … for placebo” value (irritable bowel syndrome [2]; [7]) was 4.7%. The “Dry Mouth % … for placebo” value (irritable bowel syndrome [2]; [7]) was 6.5%, the “Global Rating % Reduction … for placebo” value (irritable bowel syndrome [2]; [7]) was 0% and the “Loose Stool % Reduction … for placebo” value (irritable bowel syndrome [2]; [7]) was 4%. The “Pain Score % Reduction … for placebo” value (irritable bowel syndrome [2]; [7]) was 5%, the “Total AE % … for placebo” value (irritable bowel syndrome [2]; [7]) was 3% and the “Urgency % Reduction … for placebo” value (irritable bowel syndrome [2]; [7]) was 17%. For the same compound, the “Vision % … for placebo” value (irritable bowel syndrome [2]; [7]) was 4.3%, the “Constipation % of patients reporting AEs” value (irritable bowel syndrome [2]; [7]) was 10.5% and the “Dry Mouth % of patients reporting AEs” value (irritable bowel syndrome [2]; [7]) was 14.2%. The “Global Rating % Reduction from baseline” value (irritable bowel syndrome [2]; [7]) was 29%, the “Loose Stool % Reduction from baseline” value (irritable bowel syndrome [2]; [7]) was 37% and the “Pain Score % Reduction from baseline” value (irritable bowel syndrome [2]; [7]) was 43%. For the same compound, the “Total AE % of patients reporting AEs” value (irritable bowel syndrome [2]; [7]) was 28%, the “Urgency % Reduction from baseline” value (irritable bowel syndrome [2]; [7]) was 40% and the “Vision % of patients reporting AEs” value (irritable bowel syndrome [2]; [7]) was 4.3%. The “Constipation % … for placebo” value (irritable bowel syndrome [2]; [8]) was 9.4%, the “Dry Mouth % … for placebo” value (irritable bowel syndrome [2]; [8]) was 20.8% and the “Global Rating % Reduction … for placebo” value (irritable bowel syndrome [2]; [8]) was 2%. The “Loose Stool % Reduction … for placebo” value (irritable bowel syndrome [2]; [8]) was 14%, the “Pain Score % Reduction … for placebo” value (irritable bowel syndrome [2]; [8]) was 1% and the “Total AE % … for placebo” value (irritable bowel syndrome [2]; [8]) was 15%. For the same compound, the “Urgency % Reduction … for placebo” value (irritable bowel syndrome [2]; [8]) was 27%, the “Vision % … for placebo” value (irritable bowel syndrome [2]; [8]) was 3.3% and the “Constipation % of patients reporting AEs” value (irritable bowel syndrome [2]; [8]) was 15.2%. The “Dry Mouth % of patients reporting AEs” value (irritable bowel syndrome [2]; [8]) was 28.5%, the “Global Rating % Reduction from baseline” value (irritable bowel syndrome [2]; [8]) was 31% and the “Loose Stool % Reduction from baseline” value (irritable bowel syndrome [2]; [8]) was 47%. For the same compound, the “Pain Score % Reduction from baseline” value (irritable bowel syndrome [2]; [8]) was 39%, the “Total AE % of patients reporting AEs” value (irritable bowel syndrome [2]; [8]) was 40% and the “Urgency % Reduction from baseline” value (irritable bowel syndrome [2]; [8]) was 50%. For the same compound, the “Vision % of patients reporting AEs” value (irritable bowel syndrome [2]; [8]) was 3.3%, the “key measures of Pain Score and Global Rating” value (irritable bowel syndrome [2]; [9]) was “no effects were seen” and the “number of adverse effects” value (irritable bowel syndrome [2]; [9]) was “marked increase with dose”. For the same compound, the “efficacy measures of Loose Stool and Urgency” value (irritable bowel syndrome [2]; both controlled release od studies (Clinical Studies 1 and 2), higher doses) was “improvements”.

— patent publication US6653339B2, “Method of treating irritable bowel syndrome” (Pfizer Inc., priority 2001, dated 2003)
